From PMC10745768, “Stereoselective Synthesis and Antiproliferative Activity of Steviol-Based Diterpene 1,3-Aminoalcohol Regioisomers” (Molecules, 2023)

Assays:
[1] = tested on: MDA-MB-231 cells; assay: MTT antiproliferative assay, MDA-MB-231; assay type: cell-based; conditions: Homo sapiens, 72 h, read-out: Growth inhibition (%) ± SEM; for inhibition at 10 µM: MDA-MB-231, 10 μM; for inhibition at 30 µM: MDA-MB-231, 30 μM
Description: (§1) The in vitro anticancer effects of the presented compounds were assessed using the standard MTT [3-(4,5-dimethylthiazol2-yl)-2,5-diphenyltetrazolium bromide] assay on the following human cancer cell lines: cervical (HeLa and SiHa), breast (MCF-7 and MDA-MB-231) and ovarian cancer (A2780). The selectivity of the tested compounds was determined on murine embryonal fibroblast cells (NIH/3T3). The utilised cell lines were purchased from the European Collection of Cell Cultures (Salisbury, UK). The cells were cultivated in Eagle’s minimal essential medium supplemented with 10% fetal bovine serum, 1% non-essential amino acids and 1% antibiotic-antimycotic complex (penicillin, streptomycin, amphotericin B) at 37 °C in a humidified atmosphere containing 5% CO2. All media and supplements were purchased from Lonza Group Ltd. (Basel, Switzerland). The cancer cells were seeded into 96-well plates (5000 cells/well) and incubated overnight, and the test compounds were applied in two different concentrations (10 µM and 30 µM) and incubated for another 72 h under cell-culturing conditions. […] After 72 h, 20 µL of the 5 mg/mL MTT solution was added to each well, and the plates were incubated for 4 h. The medium was removed, and the formazan crystals produced by the mitochondrial activity were dissolved in dimethyl sulfoxide (DMSO) via shaking at 37 °C for 30 min. The absorbances were measured at 545 nm using a microplate reader (SPECTROStar Nano, BMG Labtech, Offenburg, Germany). The reference agent was cisplatin, which is a widely used cytotoxic agent. The IC50 values were calculated using sigmoid curve fitting. Two independent experiments were performed with five parallel wells for each condition. Calculations were performed using the GraphPad Prism 9 software (GraphPad Software Inc., San Diego, CA, USA).

[2] = tested on: SiHa cells; assay: MTT antiproliferative assay, SiHa; assay type: cell-based; conditions: Homo sapiens, 72 h, read-out: Growth inhibition (%) ± SEM
Description: as §1

[3] = tested on: A2780 cells; assay: MTT antiproliferative assay, A2780; assay type: cell-based; conditions: Homo sapiens, 72 h, read-out: Growth inhibition (%) ± SEM; for inhibition at 10 µM: A2780, 10 μM; for inhibition at 30 µM: A2780, 30 μM
Description: as §1

[4] = tested on: NIH/3T3 fibroblast cells; assay: MTT assay on non-malignant fibroblasts (selectivity); assay type: cell-based, murine; conditions: Mus musculus, NIH3T3, 72 h, read-out: Growth inhibition (%) ± SEM; for inhibition at 10 µM: NIH/3T3, 10 μM; for inhibition at 30 µM: NIH/3T3, 30 μM
Description: as §1

[5] = tested on: HeLa cells; assay: MTT antiproliferative assay, HeLa; assay type: cell-based; conditions: Homo sapiens, 72 h, read-out: Growth inhibition (%) ± SEM
Description: as §1

[6] = tested on: MCF-7 cells; assay: MTT antiproliferative assay, MCF-7; assay type: cell-based; conditions: Homo sapiens, MCF7, 72 h, read-out: Growth inhibition (%) ± SEM; for inhibition at 10 µM: MCF-7, 10 μM; for inhibition at 30 µM: MCF-7, 30 μM
Description: as §1

Compound | inhibition at 10 µM [1] [%] | inhibition at 30 µM [1] [%] | inhibition at 10 µM [2] [%] | inhibition at 30 µM [2] [%] | inhibition at 10 µM [3] [%] | inhibition at 30 µM [3] [%] | inhibition at 10 µM [4] [%] | inhibition at 30 µM [4] [%] | inhibition at 10 µM [5] [%] | inhibition at 30 µM [5] [%] | inhibition at 10 µM [6] [%] | inhibition at 30 µM [6] [%]
COC(=O)[C@]1(C)CCC[C@@]2(C)[C@@H]3CC[C@@]4(CO)C[C@]3(CC[C@@H]21)C[C@H]4NCc1ccccc1 [Compound 8, (4R,4aS,6aR,8R,9R,11aR,11bS)-Methyl 8-(benzylamino)-9-(hydroxymethyl)-4,11b-dimethyltetradecahydro-6a,9-methanocyclohepta[a]naphthalene-4-carboxylate] | < 20 | 97.89 ± 0.66 | < 20 | 95.3 ± 1.23 | 20.3 ± 2.05 | 98.25 ± 0.4 | 25.7 ± 0.97 | 98.27 ± 0.37 | < 20 | 97.49 ± 0.52 | 45.4 ± 1.94 | 98.9 ± 0.18
COC(=O)[C@]1(C)CCC[C@@]2(C)[C@@H]3CC[C@@]4(CO)C[C@]3(CC[C@@H]21)C[C@H]4NCc1ccc(F)cc1 [Compound 9, (4R,4aS,6aR,8R,9R,11aR,11bS)-Methyl 8-((4-fluorobenzyl)amino)-9-(hydroxymethyl)-4,11b-dimethyltetradecahydro-6a,9-methanocyclohepta[a]naphthalene-4-carboxylate] | 58 ± 2.59 | 93.42 ± 0.39 | < 20 | 86 ± 2.92 | 73.6 ± 2.61 | 99.01 ± 0.11 | < 20 | 93.9 ± 1.94 | < 20 | 95.35 ± 0.58 | 79.8 ± 1.59 | 98.07 ± 0.35
COC(=O)[C@]1(C)CCC[C@@]2(C)[C@@H]3CC[C@@]4(CO)C[C@]3(CC[C@@H]21)C[C@H]4NCc1ccc(OC)cc1 [Compound 10, (4R,4aS,6aR,8R,9R,11aR,11bS)-Methyl 9-(hydroxymethyl)-8-((4-methoxybenzyl)amino)-4,11b-dimethyltetradecahydro-6a,9-methanocyclohepta[a]naphthalene-4-carboxylate] | 78.7 ± 2.63 | 98.09 ± 0.59 | < 20 | 97.61 ± 0.9 | 39 ± 1.87 | 98.38 ± 0.51 | 20.3 ± 2.93 | 96.6 ± 1.1 |  | 97.65 ± 0.64 | 86.5 ± 0.88 | 100 ± 0.2
COC(=O)[C@]1(C)CCC[C@@]2(C)[C@@H]3CC[C@@]4(CO)C[C@]3(CC[C@@H]21)C[C@H]4NCc1cccc2ccccc12 [Compound 15, (4R,4aS,6aR,8R,9R,11aR,11bS)-Methyl 9-(hydroxymethyl)-4,11b-dimethyl-8-((naphthalen-1-ylmethyl)amino)tetradecahydro-6a,9-methanocyclohepta[a]naphthalene-4-carboxylate] | 31.3 ± 1.89 | 94.2 ± 0.98 | < 20 | 87.9 ± 1.33 | 89.5 ± 1.76 | 99.67 ± 0.49 | < 20 | 96.5 ± 0.77 | < 20 | 94.9 ± 2.04 | 54 ± 3.39 | 97.43 ± 0.59
CC[C@@H](NC[C@@]12CC[C@@H]3[C@@](CC[C@H]4[C@@]3(C)CCC[C@@]4(C)C(=O)OC)(C[C@H]1O)C2)c1ccccc1 [Compound 24, (4R,4aS,6aR,8R,9S,11aR,11bS)-Methyl 8-hydroxy-4,11b-dimethyl-9-((((R)-1-phenylpropyl)amino)methyl)tetradecahydro-6a,9-methanocyclohepta[a]naphthalene-4-carboxylate] | < 20 | 97.6 ± 1.01 | < 20 | 78.1 ± 1.56 | < 20 | 99.28 ± 0.52 | 21.8 ± 2.15 | 97.69 ± 0.87 | < 20 | 96.56 ± 0.88 | 34.8 ± 1.99 | 93.6 ± 0.94
CC[C@H](NC[C@@]12CC[C@@H]3[C@@](CC[C@H]4[C@@]3(C)CCC[C@@]4(C)C(=O)OC)(C[C@H]1O)C2)c1ccccc1 [Compound 25, (4R,4aS,6aR,8R,9S,11aR,11bS)-Methyl 8-hydroxy-4,11b-dimethyl-9-((((S)-1-phenylpropyl)amino)methyl)tetradecahydro-6a,9-methanocyclohepta[a]naphthalene-4-carboxylate] | < 20 | 69.3 ± 1.96 | < 20 | < 20 | < 20 | 73.83 ± 0.57 | < 20 | 93.7 ± 1.11 | < 20 | 32.2 ± 2.88 | 40.1 ± 1.44 | 78.8 ± 1.52
COC(=O)[C@]1(C)CCC[C@@]2(C)[C@@H]3CC[C@@]4(CNCc5cccc6ccccc56)C[C@]3(CC[C@@H]21)C[C@H]4O [Compound 26, (4R,4aS,6aR,8R,9S,11aR,11bS)-Methyl 8-hydroxy-4,11b-dimethyl-9-(((naphthalen-1-ylmethyl)amino)methyl)tetradecahydro-6a,9-methanocyclohepta[a]naphthalene-4-carboxylate] | 87.61 ± 0.59 | 93.1 ± 1.53 | 63.4 ± 0.91 | 86.9 ± 1.69 | 61.4 ± 1.45 | 98.21 ± 0.43 | 25.7 ± 1.93 | 95.6 ± 0.96 | 49.5 ± 1.23 | 93.6 ± 1.56 | 90.7 ± 1.57 | 97.49 ± 0.53
COC(=O)[C@]1(C)CCC[C@@]2(C)[C@@H]3CC[C@@]4(CN[C@@H](C)c5cccc6ccccc56)C[C@]3(CC[C@@H]21)C[C@H]4O [Compound 27, (4R,4aS,6aR,8R,9S,11aR,11bS)-Methyl 8-hydroxy-4,11b-dimethyl-9-((((S)-1-(naphthalen-1-yl)ethyl)amino)methyl)tetradecahydro-6a,9-methanocyclohepta[a]naphthalene-4-carboxylate] | 67.2 ± 1.94 | 93.69 ± 0.42 | < 20 | 86.9 ± 2.27 | 59 ± 1.68 | 98.92 ± 0.22 | < 20 | 94 ± 1.64 | < 20 | 96.38 ± 0.83 | 79.6 ± 2.89 | 97.63 ± 0.31
COC(=O)[C@]1(C)CCC[C@@]2(C)[C@@H]3CC[C@@]4(CN[C@H](C)c5cccc6ccccc56)C[C@]3(CC[C@@H]21)C[C@H]4O [Compound 28, (4R,4aS,6aR,8R,9S,11aR,11bS)-Methyl 8-hydroxy-4,11b-dimethyl-9-((((R)-1-(naphthalen-1-yl)ethyl)amino)methyl)tetradecahydro-6a,9-methanocyclohepta[a]naphthalene-4-carboxylate] | 88 ± 0.54 | 92.9 ± 1.04 | 63.4 ± 2.66 | 86.1 ± 3.79 | 60.1 ± 2.24 | 98.53 ± 0.42 | < 20 | 94 ± 1.95 | 46.8 ± 1.44 | 94.66 ± 0.63 | 90.63 ± 0.54 | 97.75 ± 0.39
COC(=O)[C@]1(C)CCC[C@@]2(C)[C@@H]3CC[C@@]4(CN[C@H](C)c5ccc6ccccc6c5)C[C@]3(CC[C@@H]21)C[C@H]4O [Compound 29, (4R,4aS,6aR,8R,9S,11aR,11bS)-Methyl 8-hydroxy-4,11b-dimethyl-9-((((R)-1-(naphthalen-2-yl)ethyl)amino)methyl)tetradecahydro-6a,9-methanocyclohepta[a]naphthalene-4-carboxylate] | < 20 | 95.3 ± 0.97 | < 20 | 79.5 ± 2.33 | 21.9 ± 0.73 | 75 ± 1.79 | < 20 | 32 ± 1.3 | < 20 | 92.17 ± 0.38 | 32.5 ± 0.92 | 93.08 ± 0.3
